Assay results from patent US20120034613A1, “Apparatus and Method for Testing Relationships Between Gene Expression and Physical Appearance of Skin” (NSE Products, Inc., priority 2010, published 2012).

Test system: EpidermFT™ Skin Model (EFT-400) full thickness skin cultures
Experiment: Affymetrix GeneChip HG U133 Plus 2.0 microarray global gene expression, agent-exposed vs untreated skin cultures
Type: cell-based, human
Conditions: Salicin 0.5% vs Untreated Control

Compound: OCc1ccccc1O[C@@H]1O[C@H](CO)[C@@H](O)[C@H](O)[C@H]1O [Salicin, 2-(Hydroxymethyl)phenyl β-D-glucospyranoside]
- Fold change TMEM38B (222736_s_at) (24 hr treatment): 2.316
- Fold change TMEM39A (218615_s_at) (24 hr treatment): 2.497
- Fold change TMEM39A (222690_s_at) (24 hr treatment): 2.47
- Fold change TMTC1 (226322_at) (24 hr treatment): 2.647
- Fold change TMTC1 (226931_at) (24 hr treatment): 2.583
- Fold change TNC (216005_at) (24 hr treatment): 2.719
- Fold change TNFAIP6 (206026_s_at) (24 hr treatment): 2.52
- Fold change TNIP3 (220655_at) (24 hr treatment): 2.654
- Fold change TRPA1 (217590_s_at) (24 hr treatment): 2.602
- Fold change TRPC4 (224220_x_at) (24 hr treatment): 2.708
- Fold change UBE2B (239163_at) (24 hr treatment): 2.636
- Fold change UGCGL2 (218801_at) (24 hr treatment): 2.4
- Fold change UST (205139_s_at) (24 hr treatment): 2.454
- Fold change WIPI1 (203827_at) (24 hr treatment): 2.744
- Fold change XPO1 (235927_at) (24 hr treatment): 2.529
- Fold change ZFAND5 (217649_at) (24 hr treatment): 2.438
- Fold change ZFP36L1 (211965_at) (24 hr treatment): 2.705
- Fold change ZNF281 (228785_at) (24 hr treatment): 2.627
- Fold change ZNF331 (219228_at) (24 hr treatment): 2.442
- Fold change ZNF697 (227080_at) (24 hr treatment): 2.599
- Fold change ABCD3 (202850_at) (24 hr, direction down): 2.077
- Fold change ABCG4 (207593_at) (24 hr, direction down): 2.004
- Fold change ACACA (212186_at) (24 hr, direction down): 2.091
- Fold change ACAD9 (224160_s_at) (24 hr, direction down): 2.034
- Fold change ACOX3 (204241_at) (24 hr, direction down): 2.001
- Fold change ADAMTSL4 (226071_at) (24 hr, direction down): 2.137
- Fold change ADARB1 (203865_s_at) (24 hr, direction down): 2.089
- Fold change AHNAK (211986_at) (24 hr, direction down): 2.023
- Fold change AIF1L (223075_s_at) (24 hr, direction down): 2.169
- Fold change AK1 (202587_s_at) (24 hr, direction down): 2.078
- Fold change AK3L1 /// AK3L2 (204347_at) (24 hr, direction down): 2.026
- Fold change ALDH5A1 (203609_s_at) (24 hr, direction down): 2.111
- Fold change ALOX12 (207206_s_at) (24 hr, direction down): 2.124
- Fold change AMACR (209426_s_at) (24 hr, direction down): 2.021
- Fold change AMOTL2 (203002_at) (24 hr, direction down): 2.089
- Fold change ANK3 (207950_s_at) (24 hr, direction down): 2.049
- Fold change APPL2 (218218_at) (24 hr, direction down): 2.013
- Fold change AQP3 (203747_at) (24 hr, direction down): 2.032
- Fold change ARHGAP27 (225618_at) (24 hr, direction down): 2.077
- Fold change ARL17 /// ARL17P1 (1555964_at) (24 hr, direction down): 2.016
- Fold change ARPC1A (200950_at) (24 hr, direction down): 2.042
- Fold change ASAP3 (222236_s_at) (24 hr, direction down): 2.079
- Fold change ATP2B4 (212136_at) (24 hr, direction down): 2.118
- Fold change ATXN3 (205416_s_at) (24 hr, direction down): 2.164
- Fold change BAIAP2 (205293_x_at) (24 hr, direction down): 2.03
- Fold change BCL11A (1559078_at) (24 hr, direction down): 2.151
- Fold change BCL11B (222895_s_at) (24 hr, direction down): 2.021
- Fold change BICD2 (1553021_s_at) (24 hr, direction down): 2.09
- Fold change BLCAP (201032_at) (24 hr, direction down): 2.077
- Fold change C1orf46 (216718_at) (24 hr, direction down): 2.083
- Fold change C1orf71 (225551_at) (24 hr, direction down): 2.006
- Fold change C1orf97 (224443_at) (24 hr, direction down): 2.02
- Fold change C2orf7 (223312_at) (24 hr, direction down): 2.047
- Fold change C4orf3 (224605_at) (24 hr, direction down): 2.002
- Fold change C6orf105 (215100_at) (24 hr, direction down): 2.121
- Fold change C12orf29 (228378_at) (24 hr, direction down): 2.164
- Fold change C15orf52 (227272_at) (24 hr, direction down): 2.042
- Fold change C17orf67 (236863_at) (24 hr, direction down): 2.03
- Fold change C20orf177 (225313_at) (24 hr, direction down): 2.134
- Fold change CALM1 /// CALM2 /// CALM3 (200653_s_at) (24 hr, direction down): 2.056
- Fold change CALM1 /// CALM2 /// CALM3 (209563_x_at) (24 hr, direction down): 2.029
- Fold change CAT (211922_s_at) (24 hr, direction down): 2.095
- Fold change CENPT (218148_at) (24 hr, direction down): 2.074
- Fold change CEP76 (52285_f_at) (24 hr, direction down): 2.004
- Fold change CERK (218421_at) (24 hr, direction down): 2.138
- Fold change CKB (200884_at) (24 hr, direction down): 2.055
- Fold change CLCN5 (232127_at) (24 hr, direction down): 2.126
- Fold change CLDN7 (202790_at) (24 hr, direction down): 2.043
- Fold change CLIP1 (1558924_s_at) (24 hr, direction down): 2.123
- Fold change CLN8 (229958_at) (24 hr, direction down): 2.102
- Fold change CNDP2 (217752_s_at) (24 hr, direction down): 2.002
- Fold change CNTN1 (211203_s_at) (24 hr, direction down): 2.105
- Fold change CSNK2A2 (203575_at) (24 hr, direction down): 2.095
- Fold change CTAGE4 (215549_x_at) (24 hr, direction down): 2.108
- Fold change CXCL12 (203666_at) (24 hr, direction down): 2.074
- Fold change CYB5R1 (202263_at) (24 hr, direction down): 2.119
- Fold change CYCS (244546_at) (24 hr, direction down): 2.168
- Fold change DBI (211070_x_at) (24 hr, direction down): 2.056
- Fold change DDR1 (1007_s_at) (24 hr, direction down): 2.104
- Fold change DDX50 (1568815_a_at) (24 hr, direction down): 2.115
- Fold change DHRS4 /// DHRS4L2 (218021_at) (24 hr, direction down): 2.062
- Fold change DMD (203881_s_at) (24 hr, direction down): 2.165
- Fold change DOPEY2 (205248_at) (24 hr, direction down): 2.103
- Fold change ELOVL3 (234513_at) (24 hr, direction down): 2.048
- Fold change EPCAM (201839_s_at) (24 hr, direction down): 2.093
- Fold change EPHB4 (202894_at) (24 hr, direction down): 2.087
- Fold change EPHB6 (204718_at) (24 hr, direction down): 2.036
- Fold change ERI2 (213365_at) (24 hr, direction down): 2.167
- Fold change F2RL1 (206429_at) (24 hr, direction down): 2.099
- Fold change FAM33A (225684_at) (24 hr, direction down): 2.022
- Fold change FAR1 (224865_at) (24 hr, direction down): 2.117
- Fold change FBXO3 (229955_at) (24 hr, direction down): 2.107
- Fold change FBXO3 (238686_at) (24 hr, direction down): 2.147
- Fold change FBXO9 (212991_at) (24 hr, direction down): 2.083
- Fold change FBXO9 (1559094_at) (24 hr, direction down): 2.099
- Fold change FIGNL1 (222843_at) (24 hr, direction down): 2.071
- Fold change FKBP1B (206857_s_at) (24 hr, direction down): 2.113
- Fold change FKBPL (219187_at) (24 hr, direction down): 2.09
- Fold change FRAG1 (41858_at) (24 hr, direction down): 2.049
- Fold change FUCA1 (202838_at) (24 hr, direction down): 2.147
- Fold change FUT2 (210608_s_at) (24 hr, direction down): 2.05
- Fold change GAB1 (225998_at) (24 hr, direction down): 2.071
- Fold change GAS7 (202192_s_at) (24 hr, direction down): 2.035
- Fold change GDAP1 (226269_at) (24 hr, direction down): 2.153
- Fold change GNG4 (205184_at) (24 hr, direction down): 2.054
- Fold change GPR1 (214605_x_at) (24 hr, direction down): 2.109
- Fold change GPR137B (204137_at) (24 hr, direction down): 2.046
- Fold change GSN (200696_s_at) (24 hr, direction down): 2.089
- Fold change HES5 (239230_at) (24 hr, direction down): 2.078
- Fold change HIGD1A (217845_x_at) (24 hr, direction down): 2.017
- Fold change HN1 (222396_at) (24 hr, direction down): 2.105
- Fold change HN1L (212115_at) (24 hr, direction down): 2.003
- Fold change HSDL2 (209512_at) (24 hr, direction down): 2.126
- Fold change ID2 (201565_s_at) (24 hr, direction down): 2.158
